Measured values reported in PubChem BioAssay AID2060511 (Molecular Pharmacology Branch, DTP, NCI, 2025).
pIC50: −log10 of the molar value.

Tested on: 422866-222-R5-J1-PDC spheroids with HUVEC/MSC, viability
Experiment: Anticancer human tumor 422866-222-R5-J1-PDC patient-derived pancreatic adenocarcinoma cell line growth inhibition [GQUAD]
Conditions: for pIC50: curve of first compound; for viability, T/C: stronger effect = lower value
Outline: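 Multi-cell-type spheroids of tumor cells with HUVEC and mesenchymal stem cells, treated with drug combinations. Concentrations descend in half-log steps from near clinical Cmax, or from 10 microM where Cmax is unknown; viability read-out.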

[1] = second compound 0.0316 µM, first compound 0.0316 µM
[2] = second compound 0.0316 µM, first compound 0.1 µM
[3] = second compound 0.0316 µM, first compound 0.316 µM
[4] = second compound 0.0316 µM, first compound 1 µM
[5] = second compound 0.0316 µM, first compound 3.16 µM
[6] = second compound 0.0316 µM, first compound 10 µM
[7] = second compound 0.1 µM, first compound 0.0316 µM
[8] = second compound 0.1 µM, first compound 0.1 µM
[9] = second compound 0.1 µM, first compound 0.316 µM
[10] = second compound 0.1 µM, first compound 1 µM
[11] = second compound 0.1 µM, first compound 3.16 µM
[12] = second compound 0.1 µM, first compound 10 µM
[13] = second compound 0.316 µM, first compound 0.0316 µM
[14] = second compound 0.316 µM, first compound 0.1 µM
[15] = second compound 0.316 µM, first compound 0.316 µM
[16] = second compound 0.316 µM, first compound 1 µM
[17] = second compound 0.316 µM, first compound 3.16 µM
[18] = second compound 0.316 µM, first compound 10 µM
[19] = second compound 1 µM, first compound 0.0316 µM
[20] = second compound 1 µM, first compound 0.1 µM
[21] = second compound 1 µM, first compound 0.316 µM
[22] = second compound 1 µM, first compound 1 µM
[23] = second compound 1 µM, first compound 3.16 µM
[24] = second compound 1 µM, first compound 10 µM
[25] = second compound 3.16 µM, first compound 0.0316 µM
[26] = second compound 3.16 µM, first compound 0.1 µM
[27] = second compound 3.16 µM, first compound 0.316 µM
[28] = second compound 3.16 µM, first compound 1 µM
[29] = second compound 3.16 µM, first compound 3.16 µM
[30] = second compound 3.16 µM, first compound 10 µM
[31] = second compound 10 µM, first compound 0.0316 µM
[32] = second compound 10 µM, first compound 0.1 µM
[33] = second compound 10 µM, first compound 0.316 µM
[34] = second compound 10 µM, first compound 1 µM
[35] = second compound 10 µM, first compound 3.16 µM
[36] = second compound 10 µM, first compound 10 µM
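Note: spheroids exposed to compounds for seven days before reading.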
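Throughout, for viability, T/C: percent viability relative to DMSO vehicle control taken as 100%.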

COc1cc(C2c3cc4c(cc3C(OC3OC5COC(C)OC5C(O)C3O)C3COC(=O)C23)OCO4)cc(OC)c1O (stereo unspecified) + Cc1[nH]c2ccc(F)cc2c1-c1nc2c3cccnc3c3ncccc3c2[nH]1
pIC50 (second compound 0.0316 µM): 5.80
pIC50 (second compound 0.1 µM): 6.08
pIC50 (second compound 0.316 µM): 5.69
pIC50 (second compound 1 µM): 5.72
pIC50 (second compound 3.16 µM): 6.02
pIC50 (second compound 10 µM): 5.65
viability, T/C [1]: 108%
viability, T/C [2]: 96.3%
viability, T/C [3]: 86.6%
viability, T/C [4]: 51.3%
viability, T/C [5]: 47.8%
viability, T/C [6]: 40.2%
viability, T/C [7]: 100%
viability, T/C [8]: 104%
viability, T/C [9]: 68.5%
viability, T/C [10]: 52%
viability, T/C [11]: 48.6%
viability, T/C [12]: 36.6%
viability, T/C [13]: 97.7%
viability, T/C [14]: 87.9%
viability, T/C [15]: 75.2%
viability, T/C [16]: 56.8%
viability, T/C [17]: 45.5%
viability, T/C [18]: 39.8%
viability, T/C [19]: 97.1%
viability, T/C [20]: 92.2%
viability, T/C [21]: 85.8%
viability, T/C [22]: 59.7%
viability, T/C [23]: 42.5%
viability, T/C [24]: 38.5%
viability, T/C [25]: 82.8%
viability, T/C [26]: 90.3%
viability, T/C [27]: 75.5%
viability, T/C [28]: 48.6%
viability, T/C [29]: 48.5%
viability, T/C [30]: 38.5%
viability, T/C [31]: 87.8%
viability, T/C [32]: 89.2%
viability, T/C [33]: 77.4%
viability, T/C [34]: 56.5%
viability, T/C [35]: 46.5%
viability, T/C [36]: 46.8%

Nc1ccn(C2OC(CO)C(O)C2(F)F)c(=O)n1 (stereo unspecified) + Cc1[nH]c2ccc(F)cc2c1-c1nc2c3cccnc3c3ncccc3c2[nH]1
pIC50 (second compound 0.0316 µM): 6.10
pIC50 (second compound 0.1 µM): 6.37
pIC50 (second compound 0.316 µM): 5.92
pIC50 (second compound 1 µM): 6.30
pIC50 (second compound 3.16 µM): 6.46
pIC50 (second compound 10 µM): 6.31
viability, T/C [1]: 85.1%
viability, T/C [2]: 75.8%
viability, T/C [3]: 63.3%
viability, T/C [4]: 46%
viability, T/C [5]: 41.1%
viability, T/C [6]: 41.8%
viability, T/C [7]: 83.8%
viability, T/C [8]: 82.2%
viability, T/C [9]: 52.5%
viability, T/C [10]: 42.2%
viability, T/C [11]: 43.7%
viability, T/C [12]: 42.5%
viability, T/C [13]: 97.8%
viability, T/C [14]: 80.9%
viability, T/C [15]: 67.8%
viability, T/C [16]: 49.9%
viability, T/C [17]: 42%
viability, T/C [18]: 35.2%
viability, T/C [19]: 91.5%
viability, T/C [20]: 75.9%
viability, T/C [21]: 53.2%
viability, T/C [22]: 45.1%
viability, T/C [23]: 45.2%
viability, T/C [24]: 43.3%
viability, T/C [25]: 83.4%
viability, T/C [26]: 62.3%
viability, T/C [27]: 52.6%
viability, T/C [28]: 42.3%
viability, T/C [29]: 42.2%
viability, T/C [30]: 42.9%
viability, T/C [31]: 72.3%
viability, T/C [32]: 67.6%
viability, T/C [33]: 55.4%
viability, T/C [34]: 39.9%
viability, T/C [35]: 43%
viability, T/C [36]: 41.2%

O=c1[nH]cc(F)c(=O)[nH]1 + Cc1[nH]c2ccc(F)cc2c1-c1nc2c3cccnc3c3ncccc3c2[nH]1
pIC50 (second compound 0.0316 µM): < 5.00
pIC50 (second compound 0.1 µM): < 5.00
pIC50 (second compound 0.316 µM): < 5.00
pIC50 (second compound 1 µM): < 5.00
pIC50 (second compound 3.16 µM): < 5.00
pIC50 (second compound 10 µM): < 5.00
viability, T/C [1]: 95%
viability, T/C [2]: 101%
viability, T/C [3]: 101%
viability, T/C [4]: 93.8%
viability, T/C [5]: 84.5%
viability, T/C [6]: 69.1%
viability, T/C [7]: 97.9%
viability, T/C [8]: 111%
viability, T/C [9]: 105%
viability, T/C [10]: 84.2%
viability, T/C [11]: 79.9%
viability, T/C [12]: 60.5%
viability, T/C [13]: 103%
viability, T/C [14]: 95.8%
viability, T/C [15]: 114%
viability, T/C [16]: 73.2%
viability, T/C [17]: 82.6%
viability, T/C [18]: 74%
viability, T/C [19]: 101%
viability, T/C [20]: 105%
viability, T/C [21]: 101%
viability, T/C [22]: 101%
viability, T/C [23]: 89.6%
viability, T/C [24]: 72.9%
viability, T/C [25]: 85.7%
viability, T/C [26]: 99.3%
viability, T/C [27]: 95.4%
viability, T/C [28]: 81.4%
viability, T/C [29]: 86.9%
viability, T/C [30]: 64%
viability, T/C [31]: 74.9%
viability, T/C [32]: 79.7%
viability, T/C [33]: 85.3%
viability, T/C [34]: 72%
viability, T/C [35]: 75.5%
viability, T/C [36]: 53.3%
